The record followed here is ChEMBL document CHEMBL3785091, “Discovery of AZD8165 a clinical candidate from a novel series of neutral thrombin inhibitors” (Medchemcomm, 2016).

Values after ≈ are worked out from the molar mass of the structure shown.

Series [1] can be described thus: Kinetic solubility of compound in HBSS-MES buffer at 5 to 10 mM at pH 6.8 by LC-UV/MS analysis. In kind it is physicochemical. The note with it: read-out: Kinetic_solubility.
Series [2] is described as follows: Bioavailability in Sprague-Dawley rat. In kind it is ADME, organism-based. Conditions: in vivo.
The test system of series [3] is Rattus norvegicus. Kind of series: Oral bioavailability in rat assessed as (5S)-N-[5-Chloro-2-(1H-tetrazol-1-yl)benzyl]-1-[(2R)-2-(4-fluorophenyl)-2-hydroxyacetyl]-4,5-dihydro-1H-pyrazole-5-carboxamide level. In kind it is ADME, organism-based. Conditions: in vivo.
The subject of the next series is Canis familiaris. Kind of series: Oral bioavailability in dog assessed as (5S)-N-[5-Chloro-2-(1H-tetrazol-1-yl)benzyl]-1-[(2R)-2-(4-fluorophenyl)-2-hydroxyacetyl]-4,5-dihydro-1H-pyrazole-5-carboxamide level. In kind it is ADME, organism-based, Canis lupus familiaris. The note with it: in vivo.
Series [4] in a line: Drug excretion in rat urine assessed as compound unchanged. Conditions: read-out: Drug excretion. In kind it is ADME, tissue-based.
Series [5] can be described thus: Drug excretion in dog urine assessed as compound unchanged. The format is ADME, tissue-based, Canis lupus familiaris. The note with it: read-out: Drug excretion.
Series [6] in a line: Drug metabolism in rat urine. In kind it is ADME, tissue-based.
Series [7] is described as follows: Drug metabolism in dog urine. The format is ADME, tissue-based, Canis lupus familiaris.
Series [8] can be described thus: Drug excretion in rat bile assessed as (5S)-N-[5-Chloro-2-(1H-tetrazol-1-yl)benzyl]-1-[(2R)-2-(4-fluorophenyl)-2-hydroxyacetyl]-4,5-dihydro-1H-pyrazole-5-carboxamide level. The format is ADME, tissue-based. Conditions: in vivo.
A short description of series [9]: Drug excretion in dog bile assessed as (5S)-N-[5-Chloro-2-(1H-tetrazol-1-yl)benzyl]-1-[(2R)-2-(4-fluorophenyl)-2-hydroxyacetyl]-4,5-dihydro-1H-pyrazole-5-carboxamide level. In kind it is ADME, tissue-based, Canis lupus familiaris. Conditions: in vivo.
Series [10] is filed under the species Rattus norvegicus. As to the kind of experiment: Cardiotoxicity in rat by electrophysiology assay relative to control. Conditions: in vivo. The format is toxicity, organism-based.
The species entered for another series is Mus musculus. Kind of series: Cardiotoxicity in mouse by electrophysiology assay relative to control. In kind it is toxicity, organism-based. The note with it: in vivo.
Another series is filed under the species Cavia porcellus. As to the kind of experiment: Cardiotoxicity in guinea pig by cardiac electrophysiology assay relative to control. In kind it is toxicity, organism-based, Heart. Conditions: in vivo.
Series [11] is filed under the species Rattus norvegicus. As to the kind of experiment: Toxicity in rat by irwin assay relative to control. Conditions: in vivo. The format is organism-based.
The nature of series [12]: Drug excretion in human urine. In kind it is ADME, tissue-based.
In series [13] the test system is Rattus norvegicus. Kind of series: Bioavailability in rat dosed via colon route assessed as (5S)-N-[5-Chloro-2-(1H-tetrazol-1-yl)benzyl]-1-[(2R)-2-(4-fluorophenyl)-2-hydroxyacetyl]-4,5-dihydro-1H-pyrazole-5-carboxamide level. The note with it: in vivo, other. In kind it is ADME, organism-based.
Series [14] relates to Homo sapiens. As to the kind of experiment: Toxicity in po dosed human. In kind it is organism-based. The note with it: in vivo.
For series [15], the species on record is Rattus norvegicus. Kind of series: Toxicity in rat arterial thrombosis model assessed as increase in bleeding time. In kind it is organism-based. Conditions: in vivo.
The subject of series [16] is Homo sapiens. Kind of series: Oral bioavailability in human. Conditions: in vivo. In kind it is ADME, organism-based.

For `CC(=O)O[C@@H](C(=O)N1N=CC[C@H]1C(=O)NCc1cc(Cl)ccc1-n1cnnn1)c1ccc(F)cc1`, the solubility kinetic in [1] came to 87.5 µM (≈ 43.7 µg/mL).
As to `CCCC(=O)O[C@@H](C(=O)N1N=CC[C@H]1C(=O)NCc1cc(Cl)ccc1-n1cnnn1)c1ccc(F)cc1`, the solubility kinetic in series [1] was below 1 µM.
Consider `CCCCC(=O)O[C@@H](C(=O)N1N=CC[C@H]1C(=O)NCc1cc(Cl)ccc1-n1cnnn1)c1ccc(F)cc1`, for which the solubility kinetic in series [1] came out at 20.5 µM (≈ 11.1 µg/mL).
On to `O=C(NCc1cc(Cl)ccc1-n1cnnn1)[C@@H]1CC=NN1C(=O)[C@H](O)c1ccccc1`, for which the bioavailability in series [2] was 60%. The solubility kinetic in series [1] was 98 µM (≈ 43.1 µg/mL).
`CCCC[C@@H](O)C(=O)N1N=CC[C@H]1C(=O)NCc1cc(Cl)ccc1-n1cnnn1` registered a bioavailability in series [2] of 70%. Further, in [1], the solubility kinetic amounted to 59 µM (≈ 24.8 µg/mL).
As to `CCC(=O)O[C@@H](C(=O)N1N=CC[C@H]1C(=O)NCc1cc(Cl)ccc1-n1cnnn1)c1ccc(F)cc1` [AZD-8165], the solubility kinetic in [1] is 2.5 µM (≈ 1.28 µg/mL). For the same compound, the results for the F in the series on Rattus norvegicus [3], in the series on Canis familiaris and with Rattus norvegicus [13] were 64%, 52% and 30%, respectively. For the same compound, the dose excreted turned out to be 66% in series [4] and 18% in series [5]. For the same compound, the Drug metabolism result in series [6] and in series [7] was “metabolite_detected” in each case. For the same compound, the Drug excretion result in series [8], in series [9] and in series [12] was “metabolite_notdetected” throughout. In addition, the “fold change (FC)” value is above 40 in the series filed under Rattus norvegicus [10], above 40 in the series filed under Mus musculus, above 40 in the series listed under Cavia porcellus and above 24 in the series filed under Rattus norvegicus [11]. In the series on Homo sapiens [14], this compound returned an MTD of 2.5 mg.
`O=C(NCc1cc(Cl)ccc1-n1cnnn1)[C@@H]1CC=NN1C(=O)[C@H](O)c1ccc(F)cc1` gave a bioavailability in [2] of 75%. In addition, the solubility kinetic in series [1] was determined as 95 µM (≈ 43.5 µg/mL). Moreover, the “fold change (FC)” value in the series filed under Rattus norvegicus [15] was 2; in the series listed under Rattus norvegicus [10], above 40; in the series filed under Mus musculus, above 40; in the series filed under Cavia porcellus it was above 40; in the series filed under Rattus norvegicus [11], above 24.
For `O=C(NCc1cc(Cl)ccc1-n1cnnn1)[C@@H]1C[C@@H]2C[C@@H]2N1C(=O)[C@H](O)c1ccccc1`, in [2], the bioavailability is 63%. In series [1], the solubility kinetic turned out to be 97 µM (≈ 43.9 µg/mL).
`CCOC(=O)CN[C@@H](C(=O)N1CC[C@H]1C(=O)NCc1ccc(/C(N)=N\O)cc1)C1CCCCC1` [XIMELAGATRAN] came in with a F in the series on Homo sapiens [16] of 20%.
In the case of `O=C(NCc1cc(Cl)ccc1-n1cnnn1)[C@@H]1C[C@H]2C[C@H]2N1C(=O)[C@H](O)c1ccccc1`, the bioavailability in series [2] worked out at 86%. In addition, in series [1], the solubility kinetic amounted to 100 µM (≈ 45.3 µg/mL).
The corresponding values for `CC(C)(C)[C@@H](O)C(=O)N1C[C@@H]2C[C@@H]2[C@H]1C(=O)NCc1cc(Cl)ccc1-n1cnnn1` are 57% and 97 µM (≈ 42 µg/mL).
